# Source: US20240261258A1, “Presurgical Perineural Administration of Resiniferatoxin For Reduction of Post-Operative Pain” (Sorrento Therapeutics, Inc., priority 2021, published 2024)
# Experiments:
# [1] = tested on: healthy dogs undergoing TPLO surgery; assay: Clinical observations during RTX instillation under general anesthesia and recovery; assay type: in vivo, dog
# Description: This example provides safety data related to the tolerability of RTX administered as a nerve block pre-surgically and as a local application on the surgical site intraoperatively in healthy dogs undergoing tibial plateau levelling osteotomy (TPLO). Pharmacological behavior of RTX after a perineural injection and local application in the hindlimb and the long-term effects on bone healing was also observed.
# Fourteen adult female beagle dogs, weighing 11.9±0.6 kg and between 3-5 years of age, were enrolled in this study. Each animal was randomly assigned to one of four groups. Four dogs (group 1) received a femoral and sciatic nerve block with 12.5 μg RTX per nerve (25 μg RTX total) diluted with sterile saline for a total volume of 2 mL (half volume per block). Another four dogs (group 2) received a femoral and a sciatic nerve block with 3.12 μg RTX per nerve block (6.25 μg RTX total) diluted with sterile saline for a total volume of 2 mL (half volume per block). Group 3 (4 animals) received a femoral and sciatic nerve block with 5 mg bupivacaine total (standard of care) plus a total of 50 μg RTX (total volume of 4 mL, concentration 12.5 μg/mL) applied locally to the cut on the tibia for 10 min. Group 4 (2 animals) was the control group and received a femoral and a sciatic nerve block with 5 mg bupivacaine total (standard of care).
# Dogs were sedated and anesthetized using standard protocols and following the American College of Veterinary Analgesia and Anesthesia guidelines. A physical exam was performed prior to surgery and a complete blood count and chemistry profile were submitted. Food was withheld for 8-10 hours before surgery and offered again 4-6 hours after recovery from anesthesia.
# Diphenhydramine (2.2 mg/kg) was given IM after induction. The peripheral IV catheter was used for administration of fluid (Lactate Ringer's solution (LRS) at 5 mL/kg/h), and intraoperative drugs when necessary (hydromorphone and/or ketamine and/or dexmedetomidine for analgesia, atropine in case of bradycardia, dopamine or dobutamine in case of hypotension). Cefazolin 22 mg/kg was administered intravenously prior to surgery and every 60-90 minutes during surgery.
# Femoral and sciatic nerve blocks with RTX or bupivacaine were performed after induction of general anesthesia, and followed by surgery (TPLO). RTX was administered at least 15 minutes prior to any cut made to the bone. Dogs in group 3 received RTX during surgery via direct application on the bone.
# At the end of surgery, animals were allowed to recover. Following extubation, animals were supervised until able to stand and walk steadily, then monitored for the first 4 hours following the procedure. Food and water were given at 4-6 hours if recovery was smooth and uneventful. All subjects received oral carprofen 2.2 mg/kg twice a day for 10 days and trazodone 5-7 mg/kg twice a day, until the end of the study.
# Perineural injections (femoral and sciatic nerve block) of RTX were performed before surgery under general anesthesia and application of RTX over the bone incision was done during the surgical procedure. The nerve blocks were applied at after administration of anesthesia and least 15 minutes before surgery.
# For the perineural injections, the animal was placed in right lateral recumbency and the lateral and medial aspects of proximal area of the left hindlimb were clipped and prepared using an aseptic technique. A caudal approach was used for the sciatic nerve block. The ultrasound transducer was placed over the lateral aspect of the biceps femoris, just distal to the greater trochanter and oriented craniocaudally. After obtaining a short axis view of the sciatic nerve, a sheathed needle for electrolocation was inserted caudally in-plane with the ultrasound transducer until the tip of the needle reached the nerve. The correct location of the needle was confirmed by a positive response (twitches of the leg) after activation of the nerve locator using a current of 0.3-0.5 mA. […]
# [2] = tested on: healthy dogs undergoing TPLO surgery; assay: Post-surgical evaluations (weight bearing, withdrawal reflex, proprioception, VAS, GCPS, injection and surgical site); assay type: in vivo, dog
# Description: Before the subjects underwent surgery, baseline data including a physical examination, hindlimb motor evaluation, hindlimb sensory evaluation, site of injection evaluation, and surgical site evaluation were collected. During the 8-week post-operative follow-up period on day 1, 2, 3, 14, 28, and 56 all the above parameters were reevaluated by a researcher who was blinded to the treatment.
# After observing the animal in its cage and after evaluating the subject walking, the overall pain was scored using a visual analog scale (VAS) and the short form of the Glasgow composite pain scale (GCPS). The VAS consisted of a straight line 10 cm long with the left end, 0 cm, indicating no pain and the right end, 10 cm, indicating unbearable pain. The user placed a mark on the line that best represented the intensity of the subject's pain. Animals with a VAS greater than 4 cm and a GCPS greater that 6 were considered painful and received intramuscular hydromorphone at 0.1 mg/kg.
# The injection site of RTX or local anesthetic was evaluated by visual examination (normal, red, swollen) and palpation (no pain, mild, severe). The surgical site was evaluated by visual examination (normal, red, swollen) and with the aid of an algometer. With the dog in lateral recumbency, the tip of the algometer was placed on the surgical site and pressure was manually applied until the animal moved the leg. During the baseline data collection, several measurements were taken until 3 measurements were within ±1 Newton (N). The number recorded corresponded to the average of these 3 values. After surgery, the force was applied only once. Data were collected from both the left (treated) and the right (non-treated) hindlimbs.
# The withdrawal reflex and proprioception were assessed and scored as normal, decreased, or absent. The motor function was evaluated by encouraging the dog to stand and walk. Weight bearing standing and walking was scored as: normal, decreased (dog uses the leg but prefers the non-operated leg), or absent (dog avoids using the operated leg).
# [3] = Group 1 High, 25 μg total F/Sc nerve block
# [4] = Group 2 Low, 6.25 μg total F/Sc nerve block
# [5] = all subjects and timepoints, cutoff for painful
compound,measurement,setting,value
"C=C(C)[C@]12C[C@@H](C)[C@@]34O[C@](Cc5ccccc5)(O[C@@H]1[C@@H]3C=C(COC(=O)Cc1ccc(O)c(OC)c1)C[C@]1(O)C(=O)C(C)=C[C@@H]41)O2 [RTX, resiniferatoxin]",Dogs that required dobutamine to treat hypotension,"[1]; Group 1 (4 dogs), after RTX administration",None
same,Dogs given dexmedetomidine IV to treat dysphoria immediately after extubation,[1]; Group 2,one
same,Dogs given naloxone IV due to prolonged recovery,[1]; Group 2,One
same,Dogs that required dobutamine to treat hypotension,"[1]; Group 2 (4 dogs), after RTX administration",one
same,Dogs given dexmedetomidine IV to treat dysphoria immediately after extubation,[1]; Group 3,one
same,Dogs that required dobutamine to treat hypotension,[1]; Group 3 (4 dogs),two
same,Mean blood pressure after increase,"[1]; Subject 2968 (group 1), from 60 mmHg, 100 minutes after RTX, leg stretched during aseptic preparation",172 mmHg
same,Heart rate after increase,"[1]; Subject 2968 (group 1), from 90 bpm, 100 minutes after RTX, leg stretched during aseptic preparation",168 bpm
same,Tolerability,"[1]; all RTX treatments: nerve block 6.25 μg and 25 μg total, local gauze loaded with 50 μg",well tolerated
same,Change in heart rate and blood pressure,"[1]; approximately 15 to 25 minutes after RTX administration, group 1 and 2 subjects",mild to moderate increase
same,Respiratory observation after extubation,[1]; dogs in group 1 and 2,polypnea
same,Body temperature to which dogs decreased before polypnea ended,"[1]; dogs in group 1 and 2, after extubation",94-95 ° F
same,Duration of decrease in body temperature after the treatment,"[1]; some dogs of groups 1 and 2, clinically acted normally",up to 3 days
same,Persistence of hypothermia,"[1]; three subjects of group 1 (0271, 2968, 5635), without any clinical signs",over 24 hours
same,Use of leg within 2 hours of surgery: Intermittent toe touching (dogs/group),[2]; [3],touching: 2/4
same,Use of leg within 2 hours of surgery: Normal (dogs/group),[2]; [3],Normal: 2/4
same,Use of leg within 2 hours of surgery: Absent (dogs/group),[2]; [4],Absent: 1/4
same,Use of leg within 2 hours of surgery: Intermittent toe touching (dogs/group),[2]; [4],touching: 3/4;
same,Use of leg within 2 hours of surgery: Absent (dogs/group),"[2]; Group 3 Local, 50 μg on bone incision + 5 mg bupivacaine block",Absent: 4/4
same,Injection site finding in one subject,"[2]; a subject in group 1, both resolved within 24 hours",minimal reaction upon palpation at day 1 and a small red area at day 3
same,Injection site finding in one subject,[2]; a subject in group 3,small non-painful red area at day 14
same,Injection site appearance,[2]; all animals,normal
same,Withdrawal reflex,[2]; all dogs at all time points,normal
same,Time for redness and swollen areas around the surgical incision to resolve,"[2]; all dogs, regardless of group, after surgery",2 to 3 days
same,GCPS (short form Glasgow composite pain scale) score,[2]; [5],< 6
same,VAS pain score,[2]; [5],< 4 cm
same,Weight bearing scores,"[2]; day 14, 28, and 56, all dogs except for one in group 2 (interdigital cyst)",normal scores
same,Efficacy on post-operative pain,[2]; perineural injection at 6.25 μg and 25 μg RTX total in dogs undergoing TPLO surgery,short-term efficacy in treating post-operative pain
